pIC50: −log10 of the molar value.
Molecular target: GSK3β (Homo sapiens, UniProt P49841)
Experiment: Inhibitory activity against GSK3β (33P-ATP phosphorylation of prephosphorylated GS1 peptide, two protocols)
Assay type: biochemical
Description: Two different protocols can be used. In a first protocol: 7.5 μM of prephosphorylated GS1 peptide and 10 μM ATP (containing 300,000 cpm of 33P-ATP) were incubated in 25 mM Tris-HCl, pH 7.5, 0.6 mM DTT, 6 mM MgCl2, 0.6 mM EGTA, 0.05 mg/ml BSA buffer for 1 hour at room temperature in the presence of GSK3beta (total reaction volume: 100 microliters). In a second protocol: 4.1 μM of prephosphorylated GS1 peptide and 42 μM ATP (containing 260,000 cpm 33P-ATP) were incubated in 80 mM Mes-NaOH, pH 6.5, 1 mM Mg acetate, 0.5 mM EGTA, 5 mM 2-mercaptoethanol, 0.02% Tween 20, 10% glycerol buffer for 2 hours at room temperature in the presence of GSK3beta. Inhibitors were solubilized in DMSO (final solvent concentration in the reaction medium, 1%). The reaction was stopped with 100 microliters of a solution made of 25 g polyphosphoric acid (85% P2O5), 126 ml 85% H3PO4, H2O to 500 ml and then diluted to 1:100 before use. An aliquot of the reaction mixture was then transferred to Whatman P81 cation exchange filters and rinsed with the solution described above. Incorporated 33P radioactivity was determined by liquid scintillation spectrometry. The phosphorylated GS-1 peptide used in the example was the same one as reported in Woodgett, J. R. (1989) Analytical Biochemistry 180, 237-241 and had the same sequence as reported therein, which reference is incorporated herein by reference in its entirety.

Chain of GSK3β (P49841 whole entry): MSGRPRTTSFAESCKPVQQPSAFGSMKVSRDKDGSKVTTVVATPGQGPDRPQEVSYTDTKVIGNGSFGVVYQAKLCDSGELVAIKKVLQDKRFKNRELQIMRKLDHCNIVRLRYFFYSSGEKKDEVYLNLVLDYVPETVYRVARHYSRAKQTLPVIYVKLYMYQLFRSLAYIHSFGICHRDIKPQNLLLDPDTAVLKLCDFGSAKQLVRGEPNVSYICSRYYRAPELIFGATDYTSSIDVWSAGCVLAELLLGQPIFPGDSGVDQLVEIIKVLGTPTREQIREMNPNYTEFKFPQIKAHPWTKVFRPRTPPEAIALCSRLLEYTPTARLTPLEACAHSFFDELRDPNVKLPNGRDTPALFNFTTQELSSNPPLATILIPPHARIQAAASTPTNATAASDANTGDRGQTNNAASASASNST

pIC50: 8.30
SMILES: COc1cc(F)ccc1C(=O)NC1CCCn2c1nc(-c1ccncn1)cc2=O (racemic) [compound No. 33 of table 1, (+/−) 4-Fluoro-2-methoxy-N-(4-oxo-2-pyrimidin-4-yl-6,7,8,9-tetrahydro-4H-pyrido[1,2-a]pyrimidin-9-yl)benzamide]

Source: patent publication US8148364B2, “Substituted bicyclic pyrimidone derivatives” (Sanofi-Aventis, priority 2005, dated 2012)
